# Assay results published in patent US20120225031A1, “SPHINGOSINE-1-PHOSPHATE RECEPTOR AGONISTS IN THE TREATMENT OF DEMYELINATING DISORDERS” (priority 2002, published 2012).
# B1: INFβ: Recombinant mouse interferon β (Calbiochem/Biosciences), dissolved in saline, given by intraperitoneal injection (protein, UniProt P01575 22-182, looked up)
# Interferon beta: INYKQLQLQERTNIRKCQELLEQLNGKINLTYRADFKIPMEMTEKMQKSYTAFAIQEMLQNVFLVFRNNFSSTGWNETIVVRLLDELHQQTVFLKTVLEEKQEERLTWEMSSTALHLKSYYWRVQRYLKLMKYNSYAWMVVRAEIFRNFLIIRRLTRNFQN
# Tests used:
# [1] = test system: SJL/J mouse model of chronic progressive EAE; test: SJL/J mouse model of chronic progressive EAE; type: in vivo
# Experimental: A.1 In Vivo: SJL/J Mouse Model of Chronic Progressive EAE
# The disease course in this animal model shares some common features with SP- and PR-MS. Immunization: On day 0 female SJL/J mice are immunized (subcutaneous flank injection) with 200 μl inoculum containing 500 μg bovine myelin basic protein (MBP) emulsified in complete Freund's adjuvant (CFA). On day 9 mice are boosted by a second MBP injection and an additional intravenous adjuvant injection consisting of 200 ng B. pertussis toxin. A final Pertussis injection is given on day 11. […] This is followed by a recovery phase starting around day 25, during which time mice remain symptom-free for about 20 days. Subsequently, by days 45-47, approximately 50% of the animals go into the progressive phase of the disease. Therefore, therapeutic treatment with test compounds starts on day 21 when the disease is fully established and continues until day 70, unless stated otherwise. Recombinant mouse interferon β (INFβ Calbiochem/Biosciences) is dissolved in saline and given by intraperitoneal injection 3× per week. Compound (a), e.g. Compound A or B, is diluted in water and given p.o. 5× per week by gavage. Mice in the vehicle control group are MBP-immunized and treated with water.
# Each experimental group consists of 10 mice, which are examined daily for clinical EAE symptoms. Disease incidence and the day of EAE onset also are recorded. Clinical grades of EAE are assessed using a scale from 0 to 3. Any disease-related mortality which occurs after starting drug treatment is recorded with a maximum score of 3.
# [2] = test system: DA rat model of chronic-protracted EAE; test: Optic neuritis in the DA rat model of chronic-protracted EAE; type: in vivo; settings: for disease progression (clinical EAE): 0.3 mg/kg p.o. once a day for 2 weeks, therapeutic treatment from about day 12, compared to vehicle-treated controls; for development of EAE symptoms / disease-related weight loss: suboptimal dose <0.1 mg/kg p.o. combined with a mTOR inhibitor (<1 mg/kg p.o.), therapeutic dosing
# Text: A.2 In Vivo: Optic Neuritis in the DA Rat Model of Chronic-Protracted EAE
# Ocular pathologic manifestations such as optic neuritis (neuromyelitis optica) are frequent in multiple sclerosis and often precede or accompany plaque formation in the brain white matter. Ocular areas, especially the optic chiasma, also are important targets in demyelinating forms of EAE. In such EAE models, functional disability caused by demyelination of the optic nerve can be assessed by electrophysiological methods, such as visual evoked cortical potentials and electroretinogram, in conjunction with morphological analysis of the ocular tissue.
# Immunization: On day 0, female DA rats are immunized by a single intradermal injection at the tail base with 100-200 μl inoculum containing a recombinant encephalitogenic peptide, e.g. myelin oligodendrocyte glycoprotein, or a homogenate of syngeneic central nervous system tissue emulsified in one part CFA (volume:volume). Neurologic symptoms develop by 10 days post-immunization, and clinical grades of EAE are assessed using a scale of 0 to 4. Therapeutic treatment with the test compound starts when the disease is fully established, usually on day 12, and continues for 2 weeks.
# [3] = test system: Lewis rat model of EAE; test: Lewis rat model of EAE, prophylactic treatment regimen; type: in vivo; settings: combination with a mTOR inhibiter at similar doses, EAE induced by intradermal guinea pig neuroantigen
# [4] = Acute toxicity (LD50) in rats; settings: rat, in vivo, po
# [5] = Acute toxicity (LD50) in monkeys; settings: monkey, in vivo, po
# [6] = 0.6 mg/kg p.o. 5x per week in combination with INFβ (10 000 IU i.p. 3x per week), therapeutic treatment from day 21, days 45-75, compared to vehicle-treated controls
Molecule,"disease progression (clinical EAE) [1, 6]",disease progression (clinical EAE) [2],development of EAE symptoms [2],disease-related weight loss [2],disease onset [3],LD50 [4],LD50 [5],"disease progression (clinical EAE) ([1]; INFβ alone, 10 000 IU 3x/week i.p., afterwards full EAE response indistinguishable from vehicle-treated controls by day 68 onwards)"
"CCCCCCCCc1ccc(CCC(N)(CO)CO)cc1.Cl [Compound A, 2-amino-2-[2-(4-octylphenyl)ethyl]propane-1,3-diol]",prevents disease progression for one month,prevents disease progression for at least 2 months,curtail development of EAE symptoms,prevent disease-related weight loss,prevent disease onset,> 10 mg/kg,> 10 mg/kg,
"NC(CO)(CO)CCc1ccc(C(=O)CCCCc2ccccc2)cc1 [Compound B, 2-amino-2-{2-[4-(1-oxo-5-phenylpentyl)phenyl]ethyl}propane-1,3-diol]",prevents disease progression for one month,prevents disease progression for at least 2 months,curtail development of EAE symptoms,prevent disease-related weight loss,prevent disease onset,,,
B1,,,,,,,,only marginally inhibits disease progression for about 1 week
